Values quoted from earlier work in US20120208745A1, “TREATMENT OF HIV” (priority 2006, published 2012).
Where two headings read alike, the source gives them in different places.

What was measured:
IL-1 = settings: whole blood of HIV patients stimulated with LPS; concentration-dependent
TNF-α [1] = settings: whole blood of HIV patients stimulated with LPS; concentration-dependent
TNF-α [2] = settings: normal PBMC, induced by HIV envelope glycoprotein gp 120
IL-1β = settings: normal PBMC, induced by HIV envelope glycoprotein gp 120

| Substance | production of IL-1 (IL-1) | production of TNF-α (TNF-α [1]) | production of TNF-α (TNF-α [2]) | production of IL-1β (IL-1β) |
| --- | --- | --- | --- | --- |
| ACTH (1-24): Melanocortin peptide, fragment 1-24 of adrenocorticotropic hormone (SYSMEHFRWGKPVGKKRRPVKVYP; Corticotropin; UniProt P01189 138-161, looked up, fragment) | reduced | reduced | – | – |
| adrenocorticotropic hormone [ACTH (1-39)] (SYSMEHFRWGKPVGKKRRPVKVYPNGAEDESAEAFPLEF; Corticotropin; UniProt P01189 138-176, looked up) [Proopiomelanocortin-derived melanocortin peptide] | reduced | reduced | – | – |
| α-melanocyte-stimulating hormone [α-MSH (1-13), α-melanocyte-stimulating hormone [α-MSH (1-13)]] | reduced | reduced | inhibit | inhibit |
